Measured values taken from patent US20250136617A1 (The Regents of the University of Colorado, A Body Corporate, priority 2022, published 2025).
Entries after “also recorded” stand apart in the source; their conditions may differ. Where two headings read alike, the source gives them in different places.

Experiments:
[1] = target: T1, CXCR4 (Homo sapiens, UniProt P61073); assay: Tag-Lite CXCR4 binding assay (displacement of fluorescent SDF-1α)
Protocol: Binding activity was measured using the Cisbio Tag-Lite Chemokine CXCR4 system (CisBio, Bedford, MA). […] Following three-hour incubation, HTRF measurements were taken using the BMG LABTECH CLARIOstar Plus (BMG LABTECH Inc., Cary, NC) with emission signals set to the Cisbio Tag-Lite Binding Assay supplier guidelines. HTRF ratio calculations completed according to supplier guidelines.

[2] = test system: diabetic wounds in Db mice; assay: Angiogenesis in diabetic wounds, CD31 immunohistochemistry at 7 days; assay type: in vivo
Protocol: The ability of compound UCUF-728 to improve diabetic wound healing in vivo was examined. Full-thickness excisional 8 mm wounds were created in Db mice and were immediately treated with 10 μM UCUF-728 or phosphate-buffered saline (PBS) control. Wound healing over the course of 22 days was monitored. Initial wound size was calculated immediately after wounding, and wound closure was assessed over time as the percentage of initial wound area. […] The effect of UCUF-728 treatment on angiogenesis was assessed using immunohistochemistry for endothelial marker CD31. Representative photos of immunoperoxidase staining for CD31 at 7 days in diabetic wounds treated with PBS or UCUF-728 are shown in FIG. 8A.
All animal experiments were approved by the Institutional Animal Care and Use Committee at the University of Colorado Denver—Anschutz Medical Campus, and experimental protocols followed the guidelines described in the NIH Guide for the Care and Use of Laboratory Animals. […] Mice pictures were taken every other day, wound size was analyzed by Image J. A full-thickness skin sample, centered on the wound, was harvested 3 and 7 days after surgery (n=5 per timepoint).
The effect of UCUF-965 treatment on angiogenesis was assessed using immunohistochemistry for the endothelial marker CD31. […] Quantification of the staining was obtained.

[3] = target: T1, CXCR4; assay: β-arrestin recruitment, 384-well, Tango CXCR4-bla U2OS cells, normalized to SDF-1α; assay type: cell-based; parameters: host or cells: U2OS; conditions: for EC50: normalized to SDF-1α, read-out: ß-arrestin recruitment EC50
In short: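 Tango CXCR4-bla U2OS cells plated in DMEM with 1% dialyzed FBS (FreeStyle 293 medium for thiadiazines), incubated overnight at 37 °C, then LiveBLAzer FRET B/G substrate added for 2 h in the dark. Fluorescence read; EC50 and Emax fitted with Hill slope 1.0, normalized to SDF-1α.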

T1 sequence (P61073 whole entry): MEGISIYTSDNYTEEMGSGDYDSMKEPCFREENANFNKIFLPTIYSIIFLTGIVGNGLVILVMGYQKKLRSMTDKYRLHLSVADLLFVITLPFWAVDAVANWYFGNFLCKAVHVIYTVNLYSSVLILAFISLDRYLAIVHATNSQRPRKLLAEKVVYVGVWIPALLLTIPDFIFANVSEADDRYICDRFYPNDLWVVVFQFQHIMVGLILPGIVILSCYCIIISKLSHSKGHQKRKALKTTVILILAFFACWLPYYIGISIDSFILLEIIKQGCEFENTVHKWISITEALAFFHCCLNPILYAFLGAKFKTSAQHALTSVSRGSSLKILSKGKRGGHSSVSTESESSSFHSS

Emax ([3]; U2OS, read-out: ß-arrestin recruitment Emax (%)) [%]	Compound	displacement of SDF-1α binding ([1]; listed as UCUF-728)	number of vessels (CD31 staining) vs PBS ([2]; listed as UCUF-728)	β-arrestin recruitment activity [3]	EC50 [3] [nM]	displacement of SDF-1α binding ([1]; listed as UCUF-965)	number of vessels (CD31 staining) vs PBS ([2]; listed as UCUF-965)	β-arrestin recruitment activity ([3]; listed as UCUF-965)
30	COc1ccc(OC)c(NS(=O)(=O)c2ccc(-c3cnc(C4CC4)o3)cc2)c1 [Oxazole Entry 19, 4-(2-Cyclopropyloxazol-5-yl)-N-(2,5-dimethoxyphenyl)benzenesulfonamide]	did not displace SDF-1α binding; also recorded: did not displace SDF-1a saturation binding	significant increase in the number of vessels; also recorded: enhanced angiogenesis	dose-dependent partial activation of β-arrestin recruitment	500			
	CCOc1ccccc1-c1nnc2n1N=C(c1ccc(N3CCCC3)cc1)CS2 [Thiadiazine Entry 23, 3-(2-ethoxyphenyl)-6-(4-(pyrrolidin-1-yl)phenyl)-7H-[1,2,4]triazolo[3,4-b][1,3,4]thiadiazine]				20	did not displace fluorescently labelled SDF-1α binding; also recorded: did not displace SDF-1α saturation binding; also recorded: did not competitively displace	enhanced angiogenesis markers; also recorded: significantly increased the number of vessels	dose-dependent partial activation of β-arrestin recruitment; also recorded: did not inhibit the action of SDF-1α
